Tests used:
[1] = target: Protein phosphatase 3 catalytic subunit alpha (Homo sapiens, UniProt Q08209); set-up: species or system Escherichia coli;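 also: inhibition of calcineurin (PP2B) enzyme activity, measured with DiFMUP as the substrate; in other assays of this panel Not Active means under 50% inhibition at 10 µM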
[2] = target: 5-hydroxytryptamine receptor 2B (Homo sapiens, UniProt P41595); assay type: cell membranes, CHO-K1, Membrane; also: in other assays of this panel Not Active means under 50% inhibition at 10 µM
Cytochrome P450 2C9 = Cytochrome P450 2C9 (Homo sapiens, UniProt P11712); details: bti-tn-5b1-4; also: in other assays of this panel Not Active means under 50% inhibition at 10 µM
[3] = DRUGMATRIX: Calcium Channel Type L, Phenylalkylamine radioligand binding (ligand: [3H] (-)-Desmethoxyverapamil (D-888)); assay type: cell membranes, Rattus norvegicus, Wistar, Brain, Membrane; details: Not Active = under 50% inhibition at 10 µM
[4] = DRUGMATRIX: Interleukin IL-1 radioligand binding (ligand: [125I] interleukin 1beta); assay type: cell membranes, Membrane; details: nih3t3; Not Active = under 50% inhibition at 10 µM
[5] = target: Voltage-gated inwardly rectifying potassium channel KCNH2 (Homo sapiens, UniProt Q12809); details: hek293; also: in other assays of this panel Not Active means under 50% inhibition at 10 µM
D(4) dopamine receptor = target: T1, D(4) dopamine receptor (Homo sapiens, UniProt P21917); assay: DRUGMATRIX: Dopamine D4.2 radioligand binding (ligand: [3H] Spiperone); assay type: cell membranes, CHO-K1, Membrane; details: Not Active = under 50% inhibition at 10 µM
T1 sequence (P21917 whole entry): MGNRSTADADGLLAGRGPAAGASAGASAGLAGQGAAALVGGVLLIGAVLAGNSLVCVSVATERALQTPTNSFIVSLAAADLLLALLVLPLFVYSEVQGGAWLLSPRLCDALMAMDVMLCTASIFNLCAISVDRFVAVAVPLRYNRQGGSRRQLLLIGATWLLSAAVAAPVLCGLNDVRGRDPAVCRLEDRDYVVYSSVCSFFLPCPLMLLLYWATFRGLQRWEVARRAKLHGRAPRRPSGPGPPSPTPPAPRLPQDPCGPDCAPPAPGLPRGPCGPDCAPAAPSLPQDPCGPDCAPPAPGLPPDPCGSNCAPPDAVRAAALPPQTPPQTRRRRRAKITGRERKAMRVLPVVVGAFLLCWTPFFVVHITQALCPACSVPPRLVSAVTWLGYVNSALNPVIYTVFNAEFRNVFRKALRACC

Sequence of Voltage-gated inwardly rectifying potassium channel KCNH2 (Q12809 whole entry): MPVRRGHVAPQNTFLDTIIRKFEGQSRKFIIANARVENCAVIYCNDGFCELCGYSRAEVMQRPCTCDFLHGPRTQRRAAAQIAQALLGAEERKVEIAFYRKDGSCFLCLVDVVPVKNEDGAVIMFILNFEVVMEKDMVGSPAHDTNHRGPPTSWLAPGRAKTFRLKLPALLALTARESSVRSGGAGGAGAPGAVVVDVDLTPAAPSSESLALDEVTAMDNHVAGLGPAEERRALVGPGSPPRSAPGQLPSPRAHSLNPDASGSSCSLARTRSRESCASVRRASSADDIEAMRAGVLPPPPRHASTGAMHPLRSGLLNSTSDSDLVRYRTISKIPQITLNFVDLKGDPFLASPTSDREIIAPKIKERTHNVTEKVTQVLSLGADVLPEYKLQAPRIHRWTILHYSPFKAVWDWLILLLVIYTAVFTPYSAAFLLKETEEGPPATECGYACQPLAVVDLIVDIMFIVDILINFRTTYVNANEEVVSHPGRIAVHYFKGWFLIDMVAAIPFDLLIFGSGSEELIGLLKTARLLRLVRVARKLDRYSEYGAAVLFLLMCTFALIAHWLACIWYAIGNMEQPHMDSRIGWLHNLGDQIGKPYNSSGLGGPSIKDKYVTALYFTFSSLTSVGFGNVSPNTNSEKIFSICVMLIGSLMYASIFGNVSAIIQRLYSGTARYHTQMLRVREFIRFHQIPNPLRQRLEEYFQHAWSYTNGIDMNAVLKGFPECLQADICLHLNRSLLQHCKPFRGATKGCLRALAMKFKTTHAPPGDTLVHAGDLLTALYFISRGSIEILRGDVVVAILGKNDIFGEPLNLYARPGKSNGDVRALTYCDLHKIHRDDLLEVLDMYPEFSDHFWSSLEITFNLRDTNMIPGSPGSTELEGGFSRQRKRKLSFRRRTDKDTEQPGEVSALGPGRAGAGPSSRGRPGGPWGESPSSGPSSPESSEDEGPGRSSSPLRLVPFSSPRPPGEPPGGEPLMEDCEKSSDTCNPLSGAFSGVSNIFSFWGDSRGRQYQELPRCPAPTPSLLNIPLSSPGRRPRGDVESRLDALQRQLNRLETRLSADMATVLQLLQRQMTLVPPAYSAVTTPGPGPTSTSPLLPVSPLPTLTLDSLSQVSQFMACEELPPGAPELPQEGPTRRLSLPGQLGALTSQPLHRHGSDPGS
Sequence of 5-hydroxytryptamine receptor 2B (P41595 whole entry): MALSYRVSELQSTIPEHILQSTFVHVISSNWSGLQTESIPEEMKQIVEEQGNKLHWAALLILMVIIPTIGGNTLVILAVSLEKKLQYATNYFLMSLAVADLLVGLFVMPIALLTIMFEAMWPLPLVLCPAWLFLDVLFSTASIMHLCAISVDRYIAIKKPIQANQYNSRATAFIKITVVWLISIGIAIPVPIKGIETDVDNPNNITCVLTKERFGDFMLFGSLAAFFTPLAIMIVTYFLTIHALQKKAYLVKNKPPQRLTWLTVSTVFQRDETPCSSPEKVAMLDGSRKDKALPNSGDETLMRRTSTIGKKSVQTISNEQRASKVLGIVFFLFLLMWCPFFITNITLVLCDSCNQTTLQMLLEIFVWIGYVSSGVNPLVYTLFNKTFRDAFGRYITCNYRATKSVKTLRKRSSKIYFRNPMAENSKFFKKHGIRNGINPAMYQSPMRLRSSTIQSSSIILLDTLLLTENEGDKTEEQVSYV
Sequence of Cytochrome P450 2C9 (P11712 whole entry): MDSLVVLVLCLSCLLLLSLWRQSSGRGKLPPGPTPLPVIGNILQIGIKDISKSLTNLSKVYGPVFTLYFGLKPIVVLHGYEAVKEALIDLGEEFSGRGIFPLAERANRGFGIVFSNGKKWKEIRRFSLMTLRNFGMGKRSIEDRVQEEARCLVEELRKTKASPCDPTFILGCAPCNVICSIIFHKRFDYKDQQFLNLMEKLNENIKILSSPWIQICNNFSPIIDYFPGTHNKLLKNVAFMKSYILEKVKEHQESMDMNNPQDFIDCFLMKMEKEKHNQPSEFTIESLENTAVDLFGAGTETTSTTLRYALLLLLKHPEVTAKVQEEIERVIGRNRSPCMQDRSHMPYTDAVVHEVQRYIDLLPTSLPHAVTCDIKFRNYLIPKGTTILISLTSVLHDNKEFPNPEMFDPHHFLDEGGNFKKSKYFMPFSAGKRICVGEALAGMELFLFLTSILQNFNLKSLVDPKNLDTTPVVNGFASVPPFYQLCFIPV

Structure (SMILES)	IC50 [1]	IC50 ([2]; cho-k1)	IC50 (Cytochrome P450 2C9)	Ki (Cytochrome P450 2C9)	IC50 [3]	Ki [3]	IC50 [4]	Ki [4]	IC50 [5]	Ki [5]	IC50 (D(4) dopamine receptor; cho-k1)	IC50 ([3]; read-out: IC50) [nM]	Ki ([3]; read-out: Ki) [nM]	IC50 ([2]; read-out: IC50) [nM]	Ki ([2]; read-out: Ki) [nM]	Ki ([2]; cho-k1)	IC50 (D(4) dopamine receptor; read-out: IC50) [nM]	Ki (D(4) dopamine receptor; read-out: Ki) [nM]
CC(c1cc2ccccc2s1)N(O)C(N)=O (stereo not given) [ZILEUTON]	Not Active	Not Active	Not Active	Not Active	Not Active	Not Active	Not Active	Not Active	Not Active	Not Active	Not Active	–	–	–	–	–	–	–
CCN(CC)CCOc1ccc(/C(=C(/Cl)c2ccccc2)c2ccccc2)cc1 [ENCLOMIPHENE]	Not Active	–	Not Active	Not Active	–	–	–	–	Not Active	Not Active	Not Active	–	–	–	–	–	–	–
O=C(Nc1ccc(Br)cc1)c1cc(Br)cc(Br)c1O [TRIBROMSALAN]	Not Active	Not Active	–	–	Not Active	Not Active	Not Active	Not Active	Not Active	Not Active	Not Active	–	–	–	–	–	–	–
Cn1c(=O)c2nc[nH]c2n(C)c1=O.O [THEOPHYLLINE]	Not Active	Not Active	–	–	Not Active	Not Active	Not Active	Not Active	Not Active	Not Active	Not Active	–	–	–	–	–	–	–
COc1ccc(CCN(C)CCCC(C#N)(c2ccc(OC)c(OC)c2)C(C)C)cc1OC (stereo not given)	Not Active	–	–	–	–	–	Not Active	Not Active	–	–	Not Active	47	45	–	–	–	–	–
CN[C@H]1CC[C@@H](c2ccc(Cl)c(Cl)c2)c2ccccc21 [SERTRALINE]	Not Active	–	Not Active	Not Active	–	–	–	–	–	–	Not Active	–	–	3390	2160	–	–	–
NC(=O)N1C(=O)/C(=C(\O)c2cccs2)c2cc(Cl)ccc21 [TENIDAP]	Not Active	Not Active	–	–	Not Active	Not Active	Not Active	Not Active	Not Active	Not Active	Not Active	–	–	–	–	–	–	–
Fc1ccc(C(c2ccc(F)cc2)N2CCN(C/C=C/c3ccccc3)CC2)cc1 [FLUNARIZINE]	Not Active	–	Not Active	Not Active	–	–	–	–	–	–	Not Active	–	–	–	–	–	–	–
COc1cc2nc(N3CCN(C(=O)C4CCCO4)CC3)nc(N)c2cc1OC (stereo not given) [TERAZOSIN]	Not Active	Not Active	Not Active	Not Active	Not Active	Not Active	Not Active	Not Active	–	–	Not Active	–	–	–	–	–	–	–
CN(C)CCOC(c1ccccc1)c1ccccc1 [DIPHENHYDRAMINE]	Not Active	–	–	–	–	–	–	–	–	–	Not Active	–	–	–	–	–	–	–
CCCCNc1ccc(C(=O)OCCN(C)C)cc1 [TETRACAINE]	Not Active	–	–	–	Not Active	Not Active	Not Active	Not Active	Not Active	Not Active	Not Active	–	–	–	–	Not Active	–	–
CCN(CC)CC(=O)Nc1c(C)cccc1C [LIDOCAINE]	Not Active	Not Active	–	–	Not Active	Not Active	Not Active	Not Active	–	–	Not Active	–	–	–	–	–	–	–
CNCCC(Oc1ccc(C(F)(F)F)cc1)c1ccccc1 (stereo not given) [FLUOXETINE]	Not Active	Not Active	Not Active	Not Active	–	–	–	–	–	–	Not Active	–	–	–	–	–	–	–
Cc1c(C)c2c(c(C)c1O)CCC(C)(CN1CCN(c3cc(N4CCCC4)nc(N4CCCC4)n3)CC1)O2 (stereo not given)	Not Active	–	–	–	Not Active	Not Active	Not Active	Not Active	Not Active	Not Active	Not Active	–	–	519	330	–	–	–
Cc1ccc(NC(=O)c2ccc(CN3CCN(C)CC3)cc2)cc1Nc1nccc(-c2cccnc2)n1 [IMATINIB]	Not Active	Not Active	Not Active	Not Active	–	–	–	–	–	–	Not Active	–	–	–	–	–	–	–
Clc1ccc(COC(Cn2ccnc2)c2ccc(Cl)cc2Cl)cc1 (stereo not given) [ECONAZOLE]	Not Active	–	–	–	–	–	–	–	–	–	–	–	–	–	–	–	9330	3270
